Experimental data reported in PubChem BioAssay AID330 (DTP/NCI, 2004).
Several values for one entry are separate records, joined by “and”; a condition that tells them apart may be missing. Identical values can stand only once. Inconclusive results and toxic doses are left out. Rule for the calls: active = survival T/C of 150% or more; inactive = T/C below 125% in these data.

System: P388 leukemia ip, CD2F1 mice, survival T/C
Test: NCI In Vivo Anticancer Drug Screen. Data for tumor model P388 Leukemia (intraperitoneal) in CD2F1 (CDF1) mice
Details: endpoint: median survival time, higher = longer survival
In short: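 Mice carrying the transplanted tumor received test compound or vehicle. Survival was recorded in each group, and the value is the treated-group measurement divided by that of the vehicle-treated control group.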

[1] = dose: 50.0 mg/kg/injection, schedule: Q01DX005 (ip), vehicle: Klucel (hydroxypropylcellulose) (HPC)
[2] = dose: 100.0 mg/kg/injection, schedule: Q01DX005 (ip), vehicle: Klucel (hydroxypropylcellulose) (HPC)

Measured: T/C

C=C(C)C1Cc2c(ccc3c(=O)c4c(oc23)c(=O)oc2cc(OC)c(OC)cc24)O1 (centres undefined)
inactive: dose: 100.0 mg/kg/injection, schedule: Q04DX003 (ip), vehicle: saline with Tween-80 103 % of control | dose: 200.0 mg/kg/injection, schedule: Q04DX003 (ip), vehicle: saline with Tween-80 98 % of control | dose: 400.0 mg/kg/injection, schedule: Q04DX003 (ip), vehicle: saline with Tween-80 105 % of control

CC(C)=CCC/C(C)=C/COc1cc(O)c2c(c1)C(=O)c1cc(C)cc(O)c1C2=O
inactive: dose: 5.0 mg/kg/injection, schedule: Q01DX009 (ip), vehicle: DMSO 100 % of control | dose: 10.0 mg/kg/injection, schedule: Q01DX009 (ip), vehicle: DMSO 97 % of control | dose: 20.0 mg/kg/injection, schedule: Q01DX009 (ip), vehicle: DMSO 97 % of control

C(=N\N1CN(/N=C/c2ccccc2)C(c2ccccc2)C1c1ccccc1)/c1ccccc1 (centres undefined)
inactive: dose: 12.5 mg/kg/injection, schedule: Q01DX005 (ip), vehicle: Klucel (hydroxypropylcellulose) (HPC) 89 % of control | dose: 25.0 mg/kg/injection, schedule: Q01DX005 (ip), vehicle: Klucel (hydroxypropylcellulose) (HPC) 99 % of control | [1] 99 % of control and 97 % of control | [2] 99 % of control | dose: 200.0 mg/kg/injection, schedule: Q01DX005 (ip), vehicle: Klucel (hydroxypropylcellulose) (HPC) 108 % of control

N#C/C(=C(/N)N1CCOCC1)N1CCOCC1
inactive: dose: 60.0 mg/kg/injection, schedule: Q01DX005 (ip), vehicle: Klucel (hydroxypropylcellulose) (HPC) 100 % of control | dose: 120.0 mg/kg/injection, schedule: Q01DX005 (ip), vehicle: Klucel (hydroxypropylcellulose) (HPC) 95 % of control | dose: 240.0 mg/kg/injection, schedule: Q01DX005 (ip), vehicle: Klucel (hydroxypropylcellulose) (HPC) 98 % of control

CCN(CC)CCSc1ccccc1
inactive: [1] 100 % of control | [2] 102 % of control

CC1=C[P+](c2ccccc2)(c2ccccc2)C=C(C)O1
inactive: dose: 3.12 mg/kg/injection, schedule: Q01DX005 (ip), vehicle: saline 96 % of control | dose: 6.25 mg/kg/injection, schedule: Q01DX005 (ip), vehicle: saline 105 % of control | dose: 12.5 mg/kg/injection, schedule: Q01DX005 (ip), vehicle: saline 105 % of control

NC1CCCCCCC1O (centres undefined)
inactive: dose: 5.0 mg/kg/injection, schedule: Q01DX009 (ip), vehicle: saline with Tween-80 104 % of control | dose: 5.0 mg/kg/injection, schedule: Q04DX003 (ip), vehicle: saline 104 % of control | dose: 10.0 mg/kg/injection, schedule: Q01DX009 (ip), vehicle: saline with Tween-80 100 % of control | dose: 10.0 mg/kg/injection, schedule: Q04DX003 (ip), vehicle: saline 100 % of control | dose: 20.0 mg/kg/injection, schedule: Q01DX009 (ip), vehicle: saline with Tween-80 104 % of control | dose: 20.0 mg/kg/injection, schedule: Q04DX003 (ip), vehicle: saline 100 % of control

O=C(NCCCCCCNC(=O)OCOC(=O)NCCCCCCNC(=O)Nc1ccc(SCCO)cc1)Nc1ccc(SCCO)cc1
inactive: dose: 100.0 mg/kg/injection, schedule: Q04DX003 (ip), vehicle: saline 102 % of control | dose: 200.0 mg/kg/injection, schedule: Q04DX003 (ip), vehicle: saline 102 % of control | dose: 400.0 mg/kg/injection, schedule: Q04DX003 (ip), vehicle: saline 99 % of control

NCCO/C=C/C(N)C(=O)O (centres undefined)
inactive: dose: 31.2 mg/kg/injection, schedule: Q01DX009 (ip), vehicle: saline 99 % of control | dose: 62.5 mg/kg/injection, schedule: Q01DX009 (ip), vehicle: saline 99 % of control | dose: 125.0 mg/kg/injection, schedule: Q01DX009 (ip), vehicle: saline 99 % of control

COC(=O)Nc1nc2cc(OC)c(OC)cc2c(=O)[nH]1
inactive: dose: 25.0 mg/kg/injection, schedule: Q01DX005 (ip), vehicle: saline with Tween-80 111 % of control | dose: 50.0 mg/kg/injection, schedule: Q01DX005 (ip), vehicle: saline with Tween-80 107 % of control

CN1CCC/C1=C/C(=O)c1ccccc1[N+](=O)[O-]
inactive: dose: 100.0 mg/kg/injection, schedule: Q04DX002 (ip), vehicle: Klucel (hydroxypropylcellulose) (HPC) 102 % of control | dose: 200.0 mg/kg/injection, schedule: Q04DX002 (ip), vehicle: Klucel (hydroxypropylcellulose) (HPC) 99 % of control | dose: 400.0 mg/kg/injection, schedule: Q04DX002 (ip), vehicle: Klucel (hydroxypropylcellulose) (HPC) 100 % of control

CC(C)OC(=O)Oc1cccs1
inactive: dose: 12.5 mg/kg/injection, schedule: Q01DX009 (ip), vehicle: saline with Tween-80 100 % of control | dose: 25.0 mg/kg/injection, schedule: Q01DX009 (ip), vehicle: saline with Tween-80 109 % of control | dose: 50.0 mg/kg/injection, schedule: Q01DX009 (ip), vehicle: saline with Tween-80 100 % of control
